Experimental findings from patent US8067447B2, “Modulators of glucocorticoid receptor, AP-1, and/or NF-κB activity and use thereof” (Bristol-Myers Squibb Company, priority 2006, dated 2011) are described below.

Experiment [1] deals with T1, human full-length glucocorticoid receptor (Homo sapiens, UniProt P04150).
T1 construct: a cell lysate containing recombinantly expressed human full-length glucocorticoid receptor; purchased PanVera Co., Madison, Wis; P2816
T1 sequence (P04150 1-777): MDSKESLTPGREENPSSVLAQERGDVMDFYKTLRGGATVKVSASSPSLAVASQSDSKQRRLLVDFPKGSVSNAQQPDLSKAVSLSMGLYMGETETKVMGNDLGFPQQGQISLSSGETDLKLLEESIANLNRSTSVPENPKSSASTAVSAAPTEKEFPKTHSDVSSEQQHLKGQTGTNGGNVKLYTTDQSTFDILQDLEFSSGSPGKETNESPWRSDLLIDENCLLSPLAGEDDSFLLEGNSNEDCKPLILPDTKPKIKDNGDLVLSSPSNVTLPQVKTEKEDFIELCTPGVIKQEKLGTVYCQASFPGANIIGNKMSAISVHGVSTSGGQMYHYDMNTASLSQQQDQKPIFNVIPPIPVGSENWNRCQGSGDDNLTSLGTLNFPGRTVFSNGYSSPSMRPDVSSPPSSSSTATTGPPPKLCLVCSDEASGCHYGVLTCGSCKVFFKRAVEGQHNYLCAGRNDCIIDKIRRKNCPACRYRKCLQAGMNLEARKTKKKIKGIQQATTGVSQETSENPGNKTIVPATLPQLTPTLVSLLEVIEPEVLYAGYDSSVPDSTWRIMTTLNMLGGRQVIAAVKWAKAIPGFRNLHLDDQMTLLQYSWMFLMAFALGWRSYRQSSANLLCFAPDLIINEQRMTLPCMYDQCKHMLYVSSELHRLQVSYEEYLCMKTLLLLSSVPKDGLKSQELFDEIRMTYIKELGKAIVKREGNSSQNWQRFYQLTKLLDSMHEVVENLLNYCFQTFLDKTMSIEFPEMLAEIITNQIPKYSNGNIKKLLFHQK
The experiment is described as follows: Glucocorticoid Receptor Binding Assay (II), fluorescence polarization competitor kit (Fluormone GS1). The note with it: cell lysate with recombinant human full-length GR, 1 nM Fluormone GS1, FP. As to the method:
In order to measure the binding of compounds on the glucocorticoid receptor a commercially available kit was used (Glucocorticoid receptor competitor assay kit, PanVera Co., Madison, Wis., P2816). Briefly, a cell lysate containing recombinantly expressed human full-length glucocorticoid receptor was mixed with a fluorescently labeled glucocorticoid (1 nM Fluormone GS1) in the presence or absence of test compound. After one hour at room temperature, the fluorescence polarization (FP) of the samples were measured.

Experiment [2] has as its system AP-1 induced transcriptional activity. The experiment is described as follows: Cellular Transrepressional Assay (AP-1 luciferase reporter in A549 cells, PMA-activated). The experiment is classed as cell-based. The note with it: A549 cells with 7x AP-1 luciferase reporter, 10 ng/ml PMA, read-out: AP-1 (EC50, nM) (Cellular Transrepression Assay). A digest of the protocol:
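Stable A549 AP-1 (7× sites) luciferase reporter line stimulated with 10 ng/ml PMA plus test molecules (0.1 nM to 40 μM) for 7 h. Luminescence read after 10 min with luciferase reagent; EC50 from % decrease of PMA-induced signal.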
(In general: Reporter assays use an easily measured gene product as a stand-in for the process of interest.)

Structures are written as SMILES. Read-outs that look alike come from different tables or passages of the source.

As to `CC(C)=CC(c1ccc2c(cnn2-c2ccc(F)cc2)c1)C(C)(C)C(=O)Nc1nncs1` (centres unmarked) [Example 56, 3-(1-(4-fluorophenyl)-1H-indazol-5-yl)-2,2,5-trimethyl-N-(1,3,4-thiadiazol-2-yl)hex-4-enamide], in experiment [1], the Ki amounted to 1.3 nM. Also, in experiment [2] (Homo sapiens, A549, 7 h), the EC50 was found to be 4 nM.
As for `CC(C(=O)Nc1nncs1)C(c1ccccc1)c1ccc2[nH]ncc2c1` (single isomer, unassigned) [151-diast A, 3-(1H-Indazol-5-yl)-2-methyl-3-phenyl-N-(1,3,4-thiadiazol-2-yl)propanamide], the Ki in experiment [1] was 1.6 nM. Also, the EC50 in experiment [2] (7 hours) worked out at 9 nM.
For `CC(C)(C(=O)NC1CCCC1O)C(C)(C)c1ccc2c(cnn2-c2ccc(F)cc2)c1` (centres unmarked) [Example 121, 3-(1-(4-fluorophenyl)-1H-indazol-5-yl)-N-(2-hydroxycyclopentyl)-2,2,3-trimethylbutanamide], the Ki in experiment [1] is 8.3 nM. The EC50 in experiment [2] (Homo sapiens, A549, 7 h) was determined as 1730 nM.
As for `CC(C)(C(=O)Nc1nncs1)C(Cc1ccccc1)c1ccc2c(cnn2-c2ccc(F)cc2)c1` (centres unmarked) [Example 123, 3-(1-(4-fluorophenyl)-1H-indazol-5-yl)-2,2-dimethyl-4-phenyl-N-(1,3,4-thiadiazol-2-yl)butanamide], the Ki in experiment [1] stood at 1.1 nM. Besides, the EC50 in experiment [2] (Homo sapiens, A549, 7 h) came out at 705 nM.
For `O=C(Nc1nncs1)C(C1CCCCC1)C(c1ccccc1)c1ccc2c(cnn2-c2ccc(F)cc2)c1` (centres unmarked) [Example 148, 2-cyclohexyl-3-(1-(4-fluorophenyl)-1H-indazol-5-yl)-3-phenyl-N-(1,3,4-thiadiazol-2-yl)propanamide], in that order: 6.4 nM and 6 nM.
For `CC(C)(C(=O)NC1CCC1)C(Cc1ccccc1)c1ccc2c(cnn2-c2ccc(F)cc2)c1` (centres unmarked) [Example 129, N-cyclobutyl-3-(1-(4-fluorophenyl)-1H-indazol-5-yl)-2,2-dimethyl-4-phenylbutanamide], in that order: 0.87 nM and 106 nM.
`Cc1ccc(CC(c2ccc3c(cnn3-c3ccc(F)cc3)c2)C(C)(C)C(=O)NC2CCCC2O)cc1` (centres unmarked) [Example 125, 3-(1-(4-fluorophenyl)-1H-indazol-5-yl)-N-(2-hydroxycyclopentyl)-2,2-dimethyl-4-p-tolylbutanamide]: the Ki in experiment [1] worked out at 9.9 nM. In experiment [2] (Homo sapiens, A549, 7 h), the EC50 was over 10000 nM.
For `Cc1cc2c(cnn2-c2ccc(F)cc2)cc1CC(C)(C)C(=O)Nc1nncs1` [Example 105], in that order: 5.6 nM and 1.9 nM.
For `CC(C)(C(=O)NC1CC1)C(Cc1ccccc1)c1ccc2c(cnn2-c2ccc(F)cc2)c1` (centres unmarked) [Example 128, N-cyclopropyl-3-(1-(4-fluorophenyl)-1H-indazol-5-yl)-2,2-dimethyl-4-phenylbutanamide], in experiment [1], the Ki was 0.68 nM. Moreover, in experiment [2] (Homo sapiens, A549, 7 h), the EC50 was 673 nM.
For `CC(C)C(c1ccc2c(cnn2-c2ccc(F)cc2)c1)C(C)(C)C(=O)Nc1nncs1` (centres unmarked) [Example 48, 3-(1-(4-fluorophenyl)-1H-indazol-5-yl)-2,2,4-trimethyl-N-(1,3,4-thiadiazol-2-yl)pentanamide], in that order: 2.4 nM and 81 nM.
Taken in the same sequence, the figures for `CC(C)(C(=O)Nc1nncs1)[C@@H](c1ccccc1)c1ccc2c(cnn2-c2ccc(F)cc2C#N)c1` [Example 97, (3S)-3-(1-(2-cyano-4-fluorophenyl)-1H-indazol-5-yl)-2,2-dimethyl-3-phenyl-N-(1,3,4-thiadiazol-2-yl)propanamide] were 5.5 nM and over 2500 nM.
For `CC(C)(C(=O)Nc1nncs1)C(c1cccc(F)c1)c1ccc2c(cnn2-c2ccc(F)cc2)c1` (centres unmarked) [Example 52, 3-(3-fluorophenyl)-3-(1-(4-fluorophenyl)-1H-indazol-5-yl)-2,2-dimethyl-N-(1,3,4-thiadiazol-2-yl)propanamide], in that order: 1.3 nM and 8.1 nM.
For the molecule `O=C(Nc1nncs1)C(c1ccccc1)C(c1ccccc1)c1ccc2c(cnn2-c2ccc(F)cc2)c1` (single isomer, unassigned) [Example 145-isomerB, 3-(1-(4-fluorophenyl)-1H-indazol-5-yl)-2,3-diphenyl-N-(1,3,4-thiadiazol-2-yl)propanamide], the Ki in experiment [1] is 1.1 nM. In addition, the EC50 in experiment [2] (7 hours) came out at 5 nM.
Consider `CN(C)C(=O)Nc1cc(F)ccc1-n1ncc2cc([C@H](c3ccccc3)C(C)(C)C(=O)Nc3nncs3)ccc21` [Example 160, (3S)-3-(1-(2-(3,3-Dimethylureido)-4-fluorophenyl)-1H-indazol-5-yl)-2,2-dimethyl-3-phenyl-N-(1,3,4-thiadiazol-2-yl)propanamide], for which the Ki in experiment [1] came to 25 nM. The EC50 in experiment [2] (Homo sapiens, A549, 7 h) came to 234 nM.
Taken in the same sequence, the figures for `Cc1ccc(C(c2ccc3c(cnn3-c3ccc(F)cc3)c2)C(C)(C)C(=O)Nc2nncs2)cc1` (centres unmarked) [Example 51, 3-(1-(4-fluorophenyl)-1H-indazol-5-yl)-2,2-dimethyl-N-(1,3,4-thiadiazol-2-yl)-3-p-tolylpropanamide] were 1.8 nM and 3.9 nM.
For the molecule `O=C(Nc1nncs1)C(c1ccccc1)C(c1ccccc1)c1ccc2c(cnn2-c2ccc(F)cc2)c1` (single isomer, unassigned) [Example 145-isomerD, 3-(1-(4-fluorophenyl)-1H-indazol-5-yl)-2,3-diphenyl-N-(1,3,4-thiadiazol-2-yl)propanamide], the Ki in experiment [1] was 2.4 nM. Besides, the EC50 in experiment [2] (7 hours) is 45 nM.
Consider `Cc1ccccc1C(c1ccc2c(cnn2-c2ccc(F)cc2)c1)C(C)(C)C(=O)Nc1nncs1` (centres unmarked) [Example 49, 3-(1-(4-fluorophenyl)-1H-indazol-5-yl)-2,2-dimethyl-N-(1,3,4-thiadiazol-2-yl)-3-o-tolylpropanamide], for which the Ki in experiment [1] was found to be 1.1 nM. Moreover, the EC50 in experiment [2] (Homo sapiens, A549, 7 h) turned out to be 4.2 nM.
For `CCOC(=O)c1cccc(-n2ncc3cc([C@H](c4ccccc4)C(C)(C)C(=O)Nc4nncs4)ccc32)c1` (stereo in doubt) [Example 95, ethyl 3-(5-(3-(1,3,4-thiadiazol-2-ylamino)-2,2-dimethyl-3-oxo-1-phenylpropyl)-1H-indazol-1-yl)benzoate], in that order: 496 nM and over 10000 nM.
On to `CC(C)(C(=O)NC1CCCC1O)C(Cc1ccccc1)c1ccc2c(cnn2-c2ccc(F)cc2)c1` (single isomer, unassigned) [Example 124-isomerC], for which the Ki in experiment [1] came out at 2.1 nM. For the same molecule, in experiment [2] (7 hours), the EC50 was found to be 1250 nM.
As for `CC(=O)OCC(C)(C(=O)Nc1nncs1)C(c1ccccc1)c1ccc2c(cnn2-c2ccc(F)cc2)c1` (centres unmarked) [Example 154, 3-(1,3,4-Thiadiazol-2-ylamino)-2-((1-(4-fluorophenyl)-1H-indazol-5-yl)(phenyl)methyl)-2-methyl-3-oxopropyl acetate], the Ki in experiment [1] is 2.6 nM. Further, the EC50 in experiment [2] (Homo sapiens, A549, 7 h) is 15 nM.
Consider `CC(C(=O)Nc1nncs1)C(c1ccccc1)c1ccc2[nH]ncc2c1` (single isomer, unassigned) [151-diast B, 3-(1H-Indazol-5-yl)-2-methyl-3-phenyl-N-(1,3,4-thiadiazol-2-yl)propanamide], for which the Ki in experiment [1] was 283 nM. Also, the EC50 in experiment [2] (7 hours) came to 1740 nM.
Turning to `CN(C)C(=O)c1cc(F)ccc1-n1ncc2cc([C@H](c3ccccc3)C(C)(C)C(=O)Nc3nncs3)ccc21` [Example 158, 2-(5-((S)-3-(1,3,4-Thiadiazol-2-ylamino)-2,2-dimethyl-3-oxo-1-phenylpropyl)-1H-indazol-1-yl)-5-fluoro-N,N-dimethylbenzamide], the Ki in experiment [1] amounted to 825 nM. In addition, the EC50 in experiment [2] (Homo sapiens, A549, 7 h) stood at 2500 nM.
For `CC(C)(C(=O)Nc1nccs1)C1(c2ccc3c(cnn3-c3ccc(F)cc3)c2)CCCCC1` [Example 102, 2-(1-(1-(4-Fluorophenyl)-1H-indazol-5-yl)cyclohexyl)-2-methyl-N-(thiazol-2-yl)propanamide], in that order: 2.8 nM and 12 nM.
For `CC(C)(CC(=O)Nc1nccs1)c1ccc2c(cnn2-c2ccc(F)cc2)c1` [Example 114, 3-(1-(4-Fluorophenyl)-1H-indazol-5-yl)-3-methyl-N-(thiazol-2-yl)butanamide], in that order: 11 nM and over 10000 nM.
For `CC(C)(CC(=O)Nc1nncs1)c1ccc2c(cnn2-c2ccc(F)cc2)c1` [Example 122, 3-(1-(4-fluorophenyl)-1H-indazol-5-yl)-3-methyl-N-(1,3,4-thiadiazol-2-yl)butanamide], in that order: 2.3 nM and over 10000 nM.

Usually Ki stands for the equilibrium dissociation constant of an inhibitor or competing ligand from its target. The EC50 is the concentration at which the effect is half-maximal.
